This passage reports EC50 and Max % results from patent US9988400B2 (Genentech, Inc., priority 2013, dated 2018).

SMILES strings stand for the structures. pEC50: −log10 of the molar value.

The target of this experiment is T1, HEK cells stably transfected with tetracycline inducible hNR1 and hNR2A (Homo sapiens, UniProt Q05586+Q12879).
T1 construct: expressed in transfected cells; host or cells: HEK cells, stably transfected, tetracycline/doxycycline inducible
Description: Assay 1: Cell-Based Assay, cytosolic calcium response to positive allosteric modulators (with 30 μM glycine and 300 nM L-glutamate, EC30). The following applies: Table 2; for pEC50: cytosolic calcium response, with 30 μM glycine and 300 nM L-glutamate (EC30), — = no plateau was reached; for Max %: responses scaled relative to 100 μM L-glutamate maximal response (100%) and 0 μM L-glutamate (0%). The procedure:
Assay 1: Cell-Based Assay
HEK cells stably transfected with tetracycline inducible hNR1 and hNR2A were seeded into clear bottom 384 well poly-D-lysine coated plates (2.5×10^4 cells per well) in Minimum Essential Media (MEM; without L-) including 7.5 μg mL^−1 doxycycline and 500 μM (+)-ketamine. The cells were incubated at 37° C. in 5% CO2 for 24 h. For measurement of changes in cytosolic calcium, the seeding media was removed and the cells incubated at 37° C. for 60 min with 1× Becton Dickinson Calcium Assay Kit reagent in Hanks Balanced Salt Solution (HBSS; w/o magnesium, including 1.8 mM calcium, 0.65 mg ml^−1 probenecid and 10 μM (+)-ketamine, pH 7.15) then allowed to equilibrate to rt for 30 min. Concentration-effect curves to Positive Allosteric Modulators (PAMs) were constructed by adding different concentrations (with 30 μM glycine and 300 nM L-glutamate (EC30)) to different wells in HBSS. Compounds were added after a 10 second baseline read and maximum level of relative fluorescence units (RFU) was measured over a 5 min period. Responses were scaled relative to 100 μM L-glutamate maximal response (100%) and 0 μM L-glutamate (0%). EC50 values are provided for compounds reaching maximal response plateaus, and the max % (EC50 (- -)) only if no plateau was reached.
A four-parameter Hill equation was fitted to individual concentration-effect curves:
[formula] in which Y, S0, Sinf, AC50, n and c were effect, lower-asymptote, upper-asymptote, mid-point location, slope parameter, and concentration respectively.

T1 sequence (Q12879 23-1464, other chains not shown): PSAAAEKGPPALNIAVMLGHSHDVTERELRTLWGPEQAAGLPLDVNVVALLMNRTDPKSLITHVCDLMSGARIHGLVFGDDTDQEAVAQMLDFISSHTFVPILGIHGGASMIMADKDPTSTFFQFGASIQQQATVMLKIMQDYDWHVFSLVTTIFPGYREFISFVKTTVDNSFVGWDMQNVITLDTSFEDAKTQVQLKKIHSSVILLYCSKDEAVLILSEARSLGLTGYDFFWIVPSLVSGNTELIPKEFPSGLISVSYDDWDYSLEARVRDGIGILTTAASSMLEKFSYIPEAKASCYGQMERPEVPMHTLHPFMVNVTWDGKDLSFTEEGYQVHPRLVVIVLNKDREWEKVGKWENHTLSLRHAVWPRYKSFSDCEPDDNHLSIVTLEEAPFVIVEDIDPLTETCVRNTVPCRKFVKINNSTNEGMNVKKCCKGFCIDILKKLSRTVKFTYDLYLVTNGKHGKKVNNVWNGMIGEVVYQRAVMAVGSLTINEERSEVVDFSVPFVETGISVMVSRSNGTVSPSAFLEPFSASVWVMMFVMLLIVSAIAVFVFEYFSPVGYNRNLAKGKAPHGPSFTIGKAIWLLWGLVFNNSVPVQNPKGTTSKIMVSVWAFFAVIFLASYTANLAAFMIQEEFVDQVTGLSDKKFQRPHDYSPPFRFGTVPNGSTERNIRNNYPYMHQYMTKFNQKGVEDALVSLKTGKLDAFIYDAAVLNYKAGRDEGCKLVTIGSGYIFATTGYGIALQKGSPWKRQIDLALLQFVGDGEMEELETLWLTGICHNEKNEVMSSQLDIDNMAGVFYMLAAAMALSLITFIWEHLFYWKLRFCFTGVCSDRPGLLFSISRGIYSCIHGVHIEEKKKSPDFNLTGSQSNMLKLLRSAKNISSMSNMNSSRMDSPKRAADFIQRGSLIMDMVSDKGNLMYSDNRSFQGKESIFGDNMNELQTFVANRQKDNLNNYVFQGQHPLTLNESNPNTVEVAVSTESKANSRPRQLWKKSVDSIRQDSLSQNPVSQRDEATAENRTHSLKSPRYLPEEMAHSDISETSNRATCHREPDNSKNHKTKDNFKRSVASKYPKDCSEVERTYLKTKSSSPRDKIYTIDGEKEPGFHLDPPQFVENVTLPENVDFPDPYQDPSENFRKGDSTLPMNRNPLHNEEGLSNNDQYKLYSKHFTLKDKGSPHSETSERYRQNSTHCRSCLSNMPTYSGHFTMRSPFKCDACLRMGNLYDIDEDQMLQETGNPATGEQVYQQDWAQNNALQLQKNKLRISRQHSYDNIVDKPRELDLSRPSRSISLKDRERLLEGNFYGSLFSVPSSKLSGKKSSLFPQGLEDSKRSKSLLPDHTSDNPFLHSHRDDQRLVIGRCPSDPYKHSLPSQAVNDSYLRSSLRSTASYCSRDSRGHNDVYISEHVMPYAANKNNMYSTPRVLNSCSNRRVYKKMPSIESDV

For orientation: pEC50 means −log10 of the EC50, conventionally taken in molar units. With `Cc1sc2nc(Cn3nc(C(F)(F)F)cc3CCO)cc(=O)n2c1[C@@H]1C[C@H]1CO` (relative stereo) [Example 15.7, 7-[[5-(2-hydroxyethyl)-3-(trifluoromethyl)-1H-pyrazol-1-yl]methyl]-3-[trans-2-(hydroxymethyl)cyclopropyl]-2-methyl-5H-[1,3]thiazolo[3,2-a]pyrimidin-5-one], the negative-log EC50 (pEC50) was 6.08 and the Max % is given as 158%.

Take `Cc1sc2nc(Cn3nc(CCO)cc3C(F)(F)F)cc(=O)n2c1[C@@H]1C[C@H]1CO` (relative stereo) [Example 15.8, 7-((3-(2-hydroxyethyl)-5-(trifluoromethyl)-1H-pyrazol-1-yl)methyl)-3-(trans-2-(hydroxymethyl)cyclopropyl)-2-methyl-5H-thiazolo[3,2-a]pyrimidin-5-one]: the pEC50 was 4.51 and the Max % is on record as 122%.

Consider `Cc1sc2nc(Cn3nc(C(F)(F)F)cc3C3CC3)cc(=O)n2c1[C@@H]1C[C@H]1CO` (relative stereo) [Example 15.11, 7-((5-cyclopropyl-3-(trifluoromethyl)-1H-pyrazol-1-yl)methyl)-3-(trans-2-(hydroxymethyl)cyclopropyl)-2-methyl-5H-thiazolo[3,2-a]pyrimidin-5-one], for which the pEC50 was 6.82 and the Max % was determined as 159%.

For the compound `Cc1sc2nc(Cn3nc(C4CC4)cc3C(F)(F)F)cc(=O)n2c1[C@@H]1C[C@H]1CO` (relative stereo) [Example 15.12, 7-((3-cyclopropyl-5-(trifluoromethyl)-1H-pyrazol-1-yl)methyl)-3-(trans-2-(hydroxymethyl)cyclopropyl)-2-methyl-5H-thiazolo[3,2-a]pyrimidin-5-one], the pEC50 is 5.60 and the Max % worked out at 143%.

`Cc1sc2nc(Cn3nc(C4CC4)cc3C3CC3)cc(=O)n2c1[C@@H]1C[C@H]1CO` (relative stereo) [Example 15.17, 7[(3,5-dicyclopropylpyrazol-1-yl)methyl]-3-[trans-2-(hydroxymethyl)cyclopropyl]-2-methyl-thiazolo[3,2-a]pyrimidin-5-one]: the pEC50 was 5.47 and the Max % was found to be 137%.

As to `Cc1cc(C)n(Cc2nc3sc(C)c([C@@H]4C[C@H]4CO)n3c(=O)c2F)n1` (relative stereo) [Example 15.18, 7-((3,5-dimethyl-1H-pyrazol-1-yl)methyl)-6-fluoro-3-(trans-2-(hydroxymethyl)cyclopropyl)-2-methyl-5H-thiazolo[3,2-a]pyrimidin-5-one], the pEC50 is 4.98 and the Max % is listed as 143%.

With `Cc1sc2nc(Cn3nc(C(F)(F)F)cc3C#N)cc(=O)n2c1[C@@H]1C[C@H]1CO` (relative stereo) [Example 15.19, 1-((3-(trans-2-(hydroxymethyl)cyclopropyl)-2-methyl-5-oxo-5H-thiazolo[3,2-a]pyrimidin-7-yl)methyl)-3-(trifluoromethyl)-1H-pyrazole-5-carbonitrile], the pEC50 is 6.29 and the Max % was 126%.

`Cc1sc2nc(Cn3nc(C(F)(F)F)cc3C3CC3)c(F)c(=O)n2c1[C@@H]1C[C@H]1CO` (relative stereo) [Example 15.20, 7-((5-cyclopropyl-3-(trifluoromethyl)-1H-pyrazol-1-yl)methyl)-6-fluoro-3-(trans-2-(hydroxymethyl)cyclopropyl)-2-methyl-5H-thiazolo[3,2-a]pyrimidin-5-one]: the pEC50 is 6.50 and the Max % came to 153%.

As for `Cc1sc2nc(Cn3nc(C#N)cc3C)cc(=O)n2c1[C@@H]1C[C@H]1CO` (relative stereo) [Example 15.21, 1-[[3-[trans-2-(hydroxymethyl)cyclopropyl]-2-methyl-5-oxo-thiazolo[3,2-a]pyrimidin-7-yl]methyl]-5-methyl-pyrazole-3-carbonitrile], the negative-log EC50 (pEC50) was 5.80 and the Max % is reported as 161%.

For the compound `Cc1sc2nc(Cn3nc(C(F)F)cc3C)cc(=O)n2c1[C@@H]1C[C@H]1CO` (relative stereo) [Example 15.22, 7[[3-(difluoromethyl)-5-methyl-pyrazol-1-yl]methyl]-3-[trans-2-(hydroxymethyl)cyclopropyl]-2-methyl-thiazolo[3,2-a]pyrimidin-5-one], the pEC50 was 6.15 and the Max % was found to be 149%.

Take `Cc1sc2nc(Cn3ncc4ccc(F)cc43)cc(=O)n2c1[C@@H]1C[C@H]1CO` (relative stereo) [Example 15.23, 7-[(6-fluoroindazol-1-yl)methyl]-3-[trans-2-(hydroxymethyl)cyclopropyl]-2-methyl-thiazolo[3,2-a]pyrimidin-5-one]: the pEC50 is 5.72 and the Max % stood at 143%.

`Cc1cc(C)n(Cc2cc(=O)n3c([C@@H]4C[C@H]4CO)c(C)sc3n2)n1` (relative stereo) [Example 15.25, 7-[(3,5-dimethylpyrazol-1-yl)methyl]-3-[trans-2-(hydroxymethyl)cyclopropyl]-2-methyl-thiazolo[3,2-a]pyrimidin-5-one]: the pEC50 is 4.78 and the Max % stood at 137%.

In the case of `Cc1sc2nc(Cn3ncc4cc(F)ccc43)cc(=O)n2c1[C@@H]1C[C@H]1CO` (relative stereo) [Example 15.26, 7-[(5-fluoroindazol-1-yl)methyl]-3-[trans-2-(hydroxymethyl)cyclopropyl]-2-methyl-thiazolo[3,2-a]pyrimidin-5-one], the pEC50 was 5.42 and the Max % turned out to be 123%.

Turning to `Cc1sc2nc(C(C)n3nc(C(F)(F)F)cc3C3CC3)cc(=O)n2c1[C@@H]1C[C@H]1CO` (relative stereo) [Example 19.1, 7-(1-(5-cyclopropyl-3-(trifluoromethyl)-1H-pyrazol-1-yl)ethyl)-3-(trans-2-(hydroxymethyl)cyclopropyl)-2-methyl-5H-thiazolo[3,2-a]pyrimidin-5-one], the pEC50 is 4.91 and the Max % is listed as 116%.

Take `Cc1sc2nc(Cc3cccc(C#N)c3F)cc(=O)n2c1[C@@H]1C[C@H]1CO` (relative stereo) [Example 20.3, 2-fluoro-3-((3-(trans-2-(hydroxymethyl)cyclopropyl)-2-methyl-5-oxo-5H-thiazolo[3,2-a]pyrimidin-7-yl)methyl)benzonitrile]: the pEC50 was 5.74 and the Max % came out at 148%.

In the case of `Cc1sc2nc(Cc3cncc4ccccc34)cc(=O)n2c1[C@@H]1C[C@H]1CO` (relative stereo) [Example 20.4, 3-(trans-2-(hydroxymethyl)cyclopropyl)-7-(isoquinolin-4-ylmethyl)-2-methyl-5H-thiazolo[3,2-a]pyrimidin-5-one], the pEC50 was 5.07 and the Max % is reported as 147%.

For `Cc1sc2nc(Cc3cccc(C(F)(F)F)c3)cc(=O)n2c1[C@@H]1C[C@H]1CO` (relative stereo) [Example 20.5, 3-(trans-2-(hydroxymethyl)cyclopropyl)-2-methyl-7-(3-(trifluoromethyl)benzyl)-5H-thiazolo[3,2-a]pyrimidin-5-one], the pEC50 is 4.62 and the Max % turned out to be 124%.

Turning to `Cc1ccc(C#N)cc1Cc1cc(=O)n2c([C@@H]3C[C@H]3CO)c(C)sc2n1` (relative stereo) [Example 20.6, 3-((3-(trans-2-(hydroxymethyl)cyclopropyl)-2-methyl-5-oxo-5H-thiazolo[3,2-a]pyrimidin-7-yl)methyl)-4-methylbenzonitrile], the pEC50 was 5.14 and the Max % came out at 137%.

On to `Cc1sc2nc(Cc3cc(C#N)ccc3F)cc(=O)n2c1[C@@H]1C[C@H]1CO` (relative stereo) [Example 20.7, 4-fluoro-3-((3-(trans-2-(hydroxymethyl)cyclopropyl)-2-methyl-5-oxo-5H-thiazolo[3,2-a]pyrimidin-7-yl)methyl)benzonitrile], for which the pEC50 was 4.97 and the Max % is 137%.

Turning to `Cc1sc2nc(Cc3cc(F)cc(C#N)c3)cc(=O)n2c1[C@@H]1C[C@H]1CO` (relative stereo) [Example 20.8, 3-fluoro-5-((3-(trans-2-(hydroxymethyl)cyclopropyl)-2-methyl-5-oxo-5H-thiazolo[3,2-a]pyrimidin-7-yl)methyl)benzonitrile], the pEC50 is 4.72 and the Max % came to 134%.

In the case of `Cc1sc2nc(Cc3ccc(F)c(C#N)c3)cc(=O)n2c1[C@@H]1C[C@H]1CO` (relative stereo) [Example 20.9, 2-fluoro-5-((3-(trans-2-(hydroxymethyl)cyclopropyl)-2-methyl-5-oxo-5H-thiazolo[3,2-a]pyrimidin-7-yl)methyl)benzonitrile], the pEC50 was 4.86 and the Max % was 133%.

Turning to `COc1ccc(C#N)cc1Cc1cc(=O)n2c([C@@H]3C[C@H]3CO)c(C)sc2n1` (relative stereo) [Example 20.10, 3-[[3-[trans-2-(hydroxymethyl)cyclopropyl]-2-methyl-5-oxo-thiazolo[3,2-a]pyrimidin-7-yl]methyl]-4-methoxy-benzonitrile], the pEC50 was 5.04 and the Max % stood at 127%.
